{
  "source": "patent US9968629B2",
  "about": "“Product and method for supporting uridine homeostasis” (N.V. Nutricia, priority 2012, dated 2018)",
  "origin": "cited, not measured here",
  "data": [
    {"smiles": "O=c1ccn([C@@H]2O[C@H](CO)[C@@H](O)[C@H]2O)c(=O)[nH]1", "note": "[uridine]", "values": [
      {"measurement": "time after which all administered uridine has been used or is catabolised", "setting": "FIG. 3 in WO 2007/089703, plasma uridine levels", "value": "6 to 8", "unit": "h"},
      {"measurement": "toxic side effects", "setting": "high doses of uridine", "value": "phlebitis, pyrogenic reactions and diarrhea"},
      {"measurement": "half time in the plasma", "setting": "plasma", "value": "3 to 4", "unit": "h"}
    ]}
  ]
}
